The values that follow come from the supplement of paper PMC6045584.

± gives the standard deviation of the averaged measurements.

Compound in experiment [1]: Cn1cc(C2=Nc3cc(NC(=O)C(N)C4CCCCC4)cc4c3C2=CNNC4=O)cn1
Description: surviving fraction relative to DMSO-only wells; higher = less growth inhibition. Particulars: exposure time: 5 days. The essentials: (§1)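 Tumour cell lines in log phase were plated in 384-well plates at 250–500 cells per well, then, after 24 hours, exposed continuously for five days to inhibitors at 0.5, 1, 5, 10, 50, 100, 500 and 1000 nM. Viability came from CellTiter-Glo luminescence, and surviving fraction is that signal normalised to the median of DMSO-only wells. Plates were read after 10 minutes at room temperature, and each line, screened three times, was kept only when replicate Pearson r was >0.7 and median Z' was >0.3.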

Compound in a further experiment: Nc1nc2[nH]cnc2c(=S)[nH]1 [TIOGUANINE]
Described as above. Particulars: exposure time: 5 days. The method, boiled down:
as §1

For SUM44 BREAST, the surviving fraction was found to be 0.896 ± 0.016 in experiment [1] (0.5 nM); 0.936 ± 0.059 in experiment [1] (1 nM); 0.905 ± 0.072 in experiment [1] (5 nM); 0.594 ± 0.03 in experiment [1] (10 nM); 0.349 ± 0.028 in experiment [1] (50 nM); 0.239 ± 0.0068 in experiment [1] (100 nM). For the same test system, the surviving fraction in experiment [1] (500 nM) was determined as 0.232 ± 0.017; in experiment [1] (1000 nM), 0.301 ± 0.015; with TIOGUANINE (0.5 nM), 0.946 ± 0.03; in the experiment with TIOGUANINE (1 nM) it was 0.992 ± 0.046; with TIOGUANINE (5 nM), 1.04 ± 0.035; with TIOGUANINE (10 nM), 1.04 ± 0.028. Moreover, the surviving fraction with TIOGUANINE (50 nM) amounted to 1.03 ± 0.011; with TIOGUANINE (100 nM) it was 1.09 ± 0.086; with TIOGUANINE (500 nM) it was 0.97 ± 0.091; in the experiment with TIOGUANINE (1000 nM), 1.055 ± 0.0085.

Take SUM159 BREAST: the surviving fraction in experiment [1] (0.5 nM) is 1.13 ± 0.14; in experiment [1] (1 nM), 1.16 ± 0.17; in experiment [1] (5 nM), 1.16 ± 0.19; in experiment [1] (10 nM), 1.12 ± 0.12; in experiment [1] (50 nM) it was 1.01 ± 0.066; in experiment [1] (100 nM), 1.1 ± 0.12. Besides, the surviving fraction in experiment [1] (500 nM) worked out at 1.04 ± 0.012; in experiment [1] (1000 nM), 0.862 ± 0.011; in the experiment with TIOGUANINE (0.5 nM), 1.07 ± 0.14; in the experiment with TIOGUANINE (1 nM) it was 1.02 ± 0.025; with TIOGUANINE (5 nM) it was 1.02 ± 0.041; with TIOGUANINE (10 nM), 1.03 ± 0.069. The surviving fraction came to 1.04 ± 0.075 in the experiment with TIOGUANINE (50 nM), 0.97 ± 0.077 with TIOGUANINE (100 nM), 1.05 ± 0.084 with TIOGUANINE (500 nM) and 1.008 ± 0.006 with TIOGUANINE (1000 nM).

On to SYO1 SYNOVIAL, for which the surviving fraction in experiment [1] (0.5 nM) worked out at 0.977 ± 0.022; in experiment [1] (1 nM), 0.96 ± 0.026; in experiment [1] (5 nM), 0.924 ± 0.04; in experiment [1] (10 nM), 0.897 ± 0.036; in experiment [1] (50 nM), 0.441 ± 0.02; in experiment [1] (100 nM), 0.18 ± 0.051. The surviving fraction amounted to 0.0432 ± 0.008 in experiment [1] (500 nM); 0.042 ± 0.0055 in experiment [1] (1000 nM); 0.941 ± 0.043 with TIOGUANINE (0.5 nM); 0.925 ± 0.042 with TIOGUANINE (1 nM); 0.917 ± 0.075 with TIOGUANINE (5 nM); 0.896 ± 0.021 in the experiment with TIOGUANINE (10 nM). For the same test system, the surviving fraction with TIOGUANINE (50 nM) was determined as 0.785 ± 0.029; with TIOGUANINE (100 nM), 0.645 ± 0.043; with TIOGUANINE (500 nM), 0.411 ± 0.022; in the experiment with TIOGUANINE (1000 nM), 0.354 ± 0.028.

Consider T47D BREAST, for which the surviving fraction was 0.9916 ± 0.0057 in experiment [1] (0.5 nM); 1.02 ± 0.032 in experiment [1] (1 nM); 1.03 ± 0.041 in experiment [1] (5 nM); 1.07 ± 0.022 in experiment [1] (10 nM); 1.12 ± 0.044 in experiment [1] (50 nM); 1.14 ± 0.059 in experiment [1] (100 nM). The surviving fraction in experiment [1] (500 nM) stood at 0.896 ± 0.023; in experiment [1] (1000 nM) it was 0.661 ± 0.021; in the experiment with TIOGUANINE (0.5 nM), 1.03 ± 0.025; with TIOGUANINE (1 nM), 0.984 ± 0.038; with TIOGUANINE (5 nM), 0.964 ± 0.016; with TIOGUANINE (10 nM) it was 0.998 ± 0.029. Moreover, the surviving fraction with TIOGUANINE (50 nM) was 1.08 ± 0.045; with TIOGUANINE (100 nM), 1.06 ± 0.072; with TIOGUANINE (500 nM), 1.03 ± 0.061; with TIOGUANINE (1000 nM), 0.978 ± 0.011.

On to U2OS BONE, for which the surviving fraction was 1.06 ± 0.016 in experiment [1] (0.5 nM); 1.08 ± 0.029 in experiment [1] (1 nM); 1.1 ± 0.045 in experiment [1] (5 nM); 1.08 ± 0.04 in experiment [1] (10 nM); 1.04 ± 0.029 in experiment [1] (50 nM); 0.999 ± 0.029 in experiment [1] (100 nM). Moreover, the surviving fraction in experiment [1] (500 nM) turned out to be 0.201 ± 0.017; in experiment [1] (1000 nM), 0.0873 ± 0.0068; with TIOGUANINE (0.5 nM) it was 1.03 ± 0.058; with TIOGUANINE (1 nM), 1.06 ± 0.043; with TIOGUANINE (5 nM) it was 1.077 ± 0.007; with TIOGUANINE (10 nM), 1.04 ± 0.018. Further, the surviving fraction was found to be 1.08 ± 0.05 with TIOGUANINE (50 nM), 1.06 ± 0.048 with TIOGUANINE (100 nM), 0.939 ± 0.014 with TIOGUANINE (500 nM) and 0.732 ± 0.042 in the experiment with TIOGUANINE (1000 nM).

Take VCAP PROSTATE: the surviving fraction in experiment [1] (0.5 nM) turned out to be 1.04 ± 0.058; in experiment [1] (1 nM), 1.13 ± 0.12; in experiment [1] (5 nM) it was 1.14 ± 0.033; in experiment [1] (10 nM), 1.16 ± 0.081; in experiment [1] (50 nM) it was 0.969 ± 0.051; in experiment [1] (100 nM) it was 0.97 ± 0.032. Also, the surviving fraction came to 0.254 ± 0.059 in experiment [1] (500 nM); 0.113 ± 0.0095 in experiment [1] (1000 nM); 1.04 ± 0.18 with TIOGUANINE (0.5 nM); 0.99 ± 0.11 in the experiment with TIOGUANINE (1 nM); 1.11 ± 0.13 with TIOGUANINE (5 nM); 1.11 ± 0.12 in the experiment with TIOGUANINE (10 nM). Moreover, the surviving fraction in the experiment with TIOGUANINE (50 nM) stood at 1.14 ± 0.094; with TIOGUANINE (100 nM) it was 1.08 ± 0.11; in the experiment with TIOGUANINE (500 nM) it was 0.973 ± 0.082; in the experiment with TIOGUANINE (1000 nM) it was 1.02 ± 0.15.

Take VP229 BREAST: the surviving fraction in experiment [1] (0.5 nM) came out at 1.04 ± 0.11; in experiment [1] (1 nM) it was 1.04 ± 0.035; in experiment [1] (5 nM), 1.02 ± 0.059; in experiment [1] (10 nM), 1.11 ± 0.17; in experiment [1] (50 nM) it was 1.06 ± 0.15; in experiment [1] (100 nM) it was 1.01 ± 0.064. The surviving fraction in experiment [1] (500 nM) was determined as 1.13 ± 0.13; in experiment [1] (1000 nM), 1.06 ± 0.15; with TIOGUANINE (0.5 nM), 1.07 ± 0.089; with TIOGUANINE (1 nM), 1.06 ± 0.053; with TIOGUANINE (5 nM) it was 1.03 ± 0.031; in the experiment with TIOGUANINE (10 nM), 1.04 ± 0.057. Moreover, the surviving fraction was 1.11 ± 0.14 in the experiment with TIOGUANINE (50 nM), 1.1 ± 0.012 with TIOGUANINE (100 nM), 1.14 ± 0.17 with TIOGUANINE (500 nM) and 1.08 ± 0.15 in the experiment with TIOGUANINE (1000 nM).

Regarding YAMATO SYNOVIAL, the surviving fraction in experiment [1] (0.5 nM) was 1.32 ± 0.11; in experiment [1] (1 nM) it was 1.28 ± 0.16; in experiment [1] (5 nM) it was 1.32 ± 0.093; in experiment [1] (10 nM), 1.33 ± 0.12; in experiment [1] (50 nM), 0.8 ± 0.032; in experiment [1] (100 nM) it was 0.682 ± 0.077. Further, the surviving fraction in experiment [1] (500 nM) is 0.285 ± 0.011; in experiment [1] (1000 nM), 0.258 ± 0.017; with TIOGUANINE (0.5 nM), 1.31 ± 0.071; with TIOGUANINE (1 nM), 1.21 ± 0.046; with TIOGUANINE (5 nM), 1.32 ± 0.052; with TIOGUANINE (10 nM), 1.35 ± 0.11. Besides, the surviving fraction with TIOGUANINE (50 nM) stood at 1.36 ± 0.17; with TIOGUANINE (100 nM) it was 1.37 ± 0.06; with TIOGUANINE (500 nM), 1.24 ± 0.092; with TIOGUANINE (1000 nM), 1.06 ± 0.066.

Turning to ZR751 BREAST, the surviving fraction was 1.04 ± 0.079 in experiment [1] (0.5 nM); 1.03 ± 0.19 in experiment [1] (1 nM); 0.941 ± 0.13 in experiment [1] (5 nM); 0.908 ± 0.11 in experiment [1] (10 nM); 0.787 ± 0.032 in experiment [1] (50 nM); 0.69 ± 0.053 in experiment [1] (100 nM). For the same test system, the surviving fraction in experiment [1] (500 nM) came to 0.625 ± 0.044; in experiment [1] (1000 nM), 0.555 ± 0.018; with TIOGUANINE (0.5 nM), 1.01 ± 0.07; with TIOGUANINE (1 nM) it was 0.969 ± 0.16; in the experiment with TIOGUANINE (5 nM) it was 0.82 ± 0.16; in the experiment with TIOGUANINE (10 nM), 0.897 ± 0.064. In addition, the surviving fraction with TIOGUANINE (50 nM) is 1.12 ± 0.13; with TIOGUANINE (100 nM), 1.02 ± 0.16; with TIOGUANINE (500 nM), 1.04 ± 0.013; with TIOGUANINE (1000 nM), 1.07 ± 0.15.
